Tested on: 616215-338-R-J1-PDC complex spheroid viability
Assay: Anticancer human tumor 616215-338-R-J1-PDC patient-derived colon adenocarcinoma cell line growth inhibition [RAS]
Conditions: for IC50: curve of first compound; for viability, T/C: stronger effect = lower value
Description: RAS pathway inhibitors in Combinations in Complex Spheroids
A high-throughput screen of multi-cell type tumor spheroids was designed to identify active combinations of RAS pathway inhibitors and targeted small molecules. Complex spheroids include a stromal component modeled by human endothelial cells (HUVEC) and fibroblasts modeled by human mesenchymal stem cells (MSCs). The concentration ranges selected for each drug and investigational agent were based upon clinically achievable concentrations if the clinical Cmax of the agent was known.
Compounds. The drugs and investigational agents: abemaciclib (NSC768073), cobimetinib (NSC768068), divarasib (GDC6063, NSC841802), docetaxel (NSC628503), GDC-1971 (RLY-1971, NSC841576), gemcitabine (NSC613327), inavolisib (NSC800729), ipatasertib (NSC767898), KB-0742 (NSC834161), MRTX-1133 (NSC836407), osimertinib (NSC779217), RMC-4630 (NSC839698), RMC-6236 (NSC851965), RMC-6291 (NSC852671), Ro-3306 (NSC812927), sapanisertib (NSC764658), SN-38 (NSC673596), staurosporine (NSC755774), SY5609 (NSC837396), and tovorafenib (DAY101, NSC766906), were obtained from the National Cancer Institute (NCI) Developmental Therapeutics Program Chemical Repository. The FDA-approved anticancer drug set is available from the NCI Developmental Therapeutics Program. […] The stock solutions were prepared in dimethyl sulfoxide (DMSO, Sigma-Aldrich, St. Louis, MO, cat. D2650) at 800-fold the tested concentration and stored at -70 degrees C prior to their use. All drugs and investigational agents were tested over a range starting from a high concentration at or near the clinical Cmax and decreasing in half-log increments. If the clinical Cmax for an agent had not been determined, the highest concentration tested was 10 microM.
Cell Culture. All cells were maintained in an incubator at 37 degrees C and 5% CO2 with 95% humidity. The PDC lines were cultured according to standard operating procedures established by the NCI PDMR. All PDCs were thawed and cultured in Matrigel-coated flasks prepared with a working solution of 1X Ham's F-12 nutrient mix, without supplementation (Invitrogen, Waltham, MA, cat. 11765054), 100 U/mL penicillin-streptomycin (Invitrogen, cat. 15140122), and 2.5% Matrigel (Corning Inc., Corning, NY, cat. 354248) for the first three passages. The 362531-283-R-J2-PDC and 782815-120-R-J1-PDC lines were cultured in 6C/Colon 1B media, which includes advanced DMEM/F-12 (Thermo Fisher Scientific, cat. 12634028), 10 mM HEPES (Thermo Fisher Scientific, cat. 15630080), 1X GlutaMAX supplement (Thermo Fisher Scientific, cat. 35050061), 0.1 mg/mL primocin (InvivoGen, San Diego, CA, cat. ant-pm-2), 10% defined fetal bovine serum, heat inactivated (HyClone Laboratories Inc., Logan, UT, cat. SH30070.03HI), 50% L-WRN conditioned media (ATCC, cat. CRL-3276), 1.25 mM N-Acetyl-L-cysteine (Sigma-Aldrich, cat. A9165), 10 mM nicotinamide (Sigma-Aldrich, cat. N0636), 1X B-27 supplement (Thermo Fisher Scientific, cat. 17504044), 1X N-2 supplement (Thermo Fisher Scientific, cat. 17502048), 50 ng/mL human EGF (Thermo Fisher Scientific, cat. PHG0311), and 10 microM Y-27632 dihydrochloride (Tocris Bioscience, cat. 1254). The K12877-001-R-J1-PDC line was cultured in 6I media, which includes all 6C/Colon 1B media plus 10 ng/mL human FGF-10 (PeproTech, cat. 100-26), 1 ng/mL human FGF-2 (PeproTech, cat. 100-18B), 1 µM prostaglandin E2 (Tocris Bioscience, cat. 2296), […] hydrocortisone (Sigma-Aldrich, cat. H4001), and […] bovine insulin (Sigma-Aldrich, cat. I6634). The K86415-001-R-J1-PDC line was cultured in 6D media, which includes all 6C/Colon 1B media components minus the L-WRN conditioned media. The 485176-168-R4-J1-PDC was cultured in PANC media, which includes all 6C/Colon 1B media plus 100 ng/mL human FGF-10 (PeproTech, cat. 100-26), 500 nM SB-431542 (Selleckchem, cat. S1067), and 10 nM gastrin (Tocris Bioscience, cat. 3006). […]

[1] = second compound 0.0316 µM, first compound 0.0316 µM
[2] = second compound 0.0316 µM, first compound 0.1 µM
[3] = second compound 0.0316 µM, first compound 0.316 µM
[4] = second compound 0.0316 µM, first compound 1 µM
[5] = second compound 0.1 µM, first compound 0.0316 µM
[6] = second compound 0.1 µM, first compound 0.1 µM
[7] = second compound 0.1 µM, first compound 0.316 µM
[8] = second compound 0.1 µM, first compound 1 µM
[9] = second compound 0.316 µM, first compound 0.0316 µM
[10] = second compound 0.316 µM, first compound 0.1 µM
[11] = second compound 0.316 µM, first compound 0.316 µM
[12] = second compound 0.316 µM, first compound 1 µM
[13] = second compound 1 µM, first compound 0.0316 µM
[14] = second compound 1 µM, first compound 0.1 µM
[15] = second compound 1 µM, first compound 0.316 µM
[16] = second compound 1 µM, first compound 1 µM
[17] = second compound 3.16 µM, first compound 0.0316 µM
[18] = second compound 3.16 µM, first compound 0.1 µM
[19] = second compound 3.16 µM, first compound 0.316 µM
[20] = second compound 3.16 µM, first compound 1 µM
[21] = second compound 10 µM, first compound 0.0316 µM
[22] = second compound 10 µM, first compound 0.1 µM
[23] = second compound 10 µM, first compound 0.316 µM
[24] = second compound 10 µM, first compound 1 µM
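Also: spheroids exposed to agents for seven days before viability readout.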
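For viability, T/C in this document: 100% = DMSO vehicle control viability.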

Structure (SMILES): CC(=O)OC12COC1CC(O)C1(C)C(=O)C(O)C3=C(C)C(OC(=O)C(O)C(NC(=O)OC(C)(C)C)c4ccccc4)CC(O)(C(OC(=O)c4ccccc4)C21)C3(C)C (centres undefined) + C#Cc1c(F)ccc2cc(O)cc(-c3ncc4c(N5CC6CCC(C5)N6)nc(OCC56CCCN5CC(F)C6)nc4c3F)c12
- IC50 (second compound 0.0316 µM): < 31.6 nM
- IC50 (second compound 0.1 µM): < 31.6 nM
- IC50 (second compound 0.316 µM): < 31.6 nM
- IC50 (second compound 1 µM): < 31.6 nM
- IC50 (second compound 3.16 µM): < 31.6 nM
- IC50 (second compound 10 µM): < 31.6 nM
- viability, T/C [1]: 26.7%
- viability, T/C [2]: 23.1%
- viability, T/C [3]: 18.6%
- viability, T/C [4]: 18.8%
- viability, T/C (second compound 0.0316 µM, first compound 3.16 µM): 22.8%
- viability, T/C (second compound 0.0316 µM, first compound 10 µM): 23%
- viability, T/C [5]: 26.2%
- viability, T/C [6]: 23.6%
- viability, T/C [7]: 17.9%
- viability, T/C [8]: 18%
- viability, T/C (second compound 0.1 µM, first compound 3.16 µM): 25.9%
- viability, T/C (second compound 0.1 µM, first compound 10 µM): 23.3%
- viability, T/C [9]: 29.3%
- viability, T/C [10]: 21.3%
- viability, T/C [11]: 18%
- viability, T/C [12]: 18.1%
- viability, T/C (second compound 0.316 µM, first compound 3.16 µM): 22.4%
- viability, T/C (second compound 0.316 µM, first compound 10 µM): 22.1%
- viability, T/C [13]: 23%
- viability, T/C [14]: 19.6%
- viability, T/C [15]: 20.9%
- viability, T/C [16]: 17.1%
- viability, T/C (second compound 1 µM, first compound 3.16 µM): 19.1%
- viability, T/C (second compound 1 µM, first compound 10 µM): 19.4%
- viability, T/C [17]: 20.7%
- viability, T/C [18]: 17.4%
- viability, T/C [19]: 15.9%
- viability, T/C [20]: 15.1%
- viability, T/C (second compound 3.16 µM, first compound 3.16 µM): 17.9%
- viability, T/C (second compound 3.16 µM, first compound 10 µM): 23.4%
- viability, T/C [21]: 14.5%
- viability, T/C [22]: 14.9%
- viability, T/C [23]: 16.1%
- viability, T/C [24]: 13%
- viability, T/C (second compound 10 µM, first compound 3.16 µM): 17.5%
- viability, T/C (second compound 10 µM, first compound 10 µM): 12.3%

Structure (SMILES): Nc1ccn(C2OC(CO)C(O)C2(F)F)c(=O)n1 (centres undefined) + C#Cc1c(F)ccc2cc(O)cc(-c3ncc4c(N5CC6CCC(C5)N6)nc(OCC56CCCN5CC(F)C6)nc4c3F)c12
- IC50 (second compound 0.0316 µM): 9.25 nM
- IC50 (second compound 0.1 µM): 9.98 nM
- IC50 (second compound 0.316 µM): 9.74 nM
- IC50 (second compound 1 µM): 5.94 nM
- IC50 (second compound 3.16 µM): 3.91 nM
- IC50 (second compound 10 µM): 3.26 nM
- viability, T/C (second compound 0.0316 µM, first compound 0.00316 µM): 113%
- viability, T/C (second compound 0.0316 µM, first compound 0.01 µM): 44.9%
- viability, T/C [1]: 24.6%
- viability, T/C [2]: 13%
- viability, T/C [3]: 13.2%
- viability, T/C [4]: 16.3%
- viability, T/C (second compound 0.1 µM, first compound 0.00316 µM): 117%
- viability, T/C (second compound 0.1 µM, first compound 0.01 µM): 48.8%
- viability, T/C [5]: 28.1%
- viability, T/C [6]: 14.9%
- viability, T/C [7]: 14.4%
- viability, T/C [8]: 14.6%
- viability, T/C (second compound 0.316 µM, first compound 0.00316 µM): 90%
- viability, T/C (second compound 0.316 µM, first compound 0.01 µM): 48.5%
- viability, T/C [9]: 28.4%
- viability, T/C [10]: 15.6%
- viability, T/C [11]: 13.9%
- viability, T/C [12]: 14.8%
- viability, T/C (second compound 1 µM, first compound 0.00316 µM): 77%
- viability, T/C (second compound 1 µM, first compound 0.01 µM): 24.4%
- viability, T/C [13]: 26.7%
- viability, T/C [14]: 12.7%
- viability, T/C [15]: 10.8%
- viability, T/C [16]: 12.1%
- viability, T/C (second compound 3.16 µM, first compound 0.00316 µM): 55.9%
- viability, T/C (second compound 3.16 µM, first compound 0.01 µM): 24.1%
- viability, T/C [17]: 19%
- viability, T/C [18]: 10.6%
- viability, T/C [19]: 11.6%
- viability, T/C [20]: 12.1%
- viability, T/C (second compound 10 µM, first compound 0.00316 µM): 50.9%
- viability, T/C (second compound 10 µM, first compound 0.01 µM): 21.4%
- viability, T/C [21]: 16.3%
- viability, T/C [22]: 12.4%
- viability, T/C [23]: 10%
- viability, T/C [24]: 10.9%

Source: PubChem BioAssay AID2060898 (Molecular Pharmacology Branch, DTP, NCI, 2025)
